Read-outs that look alike come from different tables or passages of the source.
Test system: C. elegans
Assay: microbe, parasite or virus in culture
Conditions: Caenorhabditis elegans
[1] = 0 h, read-out: Percentage of motility inhibition 0 h, Table S2, C. elegans SS assay, 110 μM, 0 h, averages of 4 data points
[2] = 24 h, read-out: Percentage of motility inhibition 24 h, Table S2, C. elegans SS assay, 110 μM, 24 h, averages of 4 data points
[3] = 0 h, read-out: Percentage of motility inhibition 0 h
[4] = 24 h, read-out: Percentage of motility inhibition 24 h

| SMILES | inhibition at 110 µM [1] | inhibition at 110 µM [2] | inhibition at 110 µM [3] | inhibition at 110 µM [4] |
| --- | --- | --- | --- | --- |
| C=C1C(=O)[C@@]23[C@H](O)C[C@@H]4C(C)(C)CC[C@H](O)[C@@]4(CO)[C@@H]2CC[C@@H]1[C@H]3O [Kamebakaurin] | 0% | 11% | – | – |
| C=C1C[C@@]23CC[C@H]4[C@@](C)(CCC[C@@]4(C)C(=O)O)[C@@H]2CC[C@@H]1C3 [Kaurenoic acid] | 0% | 7% | – | – |
| CC(=O)N1CCN(c2ccc(OCC3COC(Cn4ccnc4)(c4ccc(Cl)cc4Cl)O3)cc2)CC1 (stereo not drawn) [Ketoconazole] | 13% | 0% | – | – |
| O=C1N[C@@H]2[C@@H](O)[C@@H](O)[C@H](O)[C@@H](CO)N2C1=O [Kifunensine] | 30% | 5% | – | – |
| C[C@@]1(CO)C[C@@H](O)C[C@@]2(C)[C@@H]3CC[C@](C)([C@@H](O)CO)C=C3CC[C@H]12 [Kirenol] | 0% | 15% | – | – |
| C=C[C@@]12CN(C)[C@H]3C[C@]14C(=Nc1ccccc14)[C@H]1C[C@@H]2[C@@H]3CO1 [Koumine] | 16% | 18% | – | – |
| O=C(CCc1ccc(O)c(O)c1)NCCCNCCCCNCCCNC(=O)CCc1ccc(O)c(O)c1 [Kukoamine A] | 0% | 32% | – | – |
| C=C(C)[C@H](CC=C(C)C)Cc1c(O)cc(OC)c2c1O[C@H](c1ccc(O)cc1O)CC2=O [Kurarinone] | 0% | 0% | – | – |
| C=C(C)[C@H](CC=C(C)C)Cc1c(O)cc(O)c2c1O[C@H](c1ccccc1O)CC2=O [Kushenol A] | 14% | 10% | – | – |
| N=C(N)NCCC[C@H](N)C(=O)O [L-Arginine] | – | – | 0% | 0% |
| O=C1O[C@H]([C@@H](O)CO)C(O)=C1O [L-Ascorbic acid] | 5% | 9% | – | – |
| N[C@@H](CC(=O)O)C(=O)O [L-Aspartic acid] | 20% | 30% | – | – |
| N[C@@H](CS)C(=O)O [L-Cysteine] | 4% | 7% | – | – |
| N[C@@H](CCC(=O)O)C(=O)O [L-Glutamic acid] | 3% | 1% | – | – |
| NC(=O)CC[C@H](N)C(=O)O [L-Glutamine] | 3% | 0% | – | – |
| N[C@@H](Cc1c[nH]cn1)C(=O)O [L-Histidine] | 23% | 22% | – | – |
| CC[C@H](C)[C@H](N)C(=O)O [L-Isoleucine] | 14% | 17% | – | – |
| C[C@H](O)C(=O)O [L-Lactic acid] | 16% | 21% | – | – |
| CC(C)C[C@H](N)C(=O)O [L-Leucine] | 4% | 11% | – | – |
| NCCCC[C@H](N)C(=O)O [L-Lysine] | – | – | 19% | 2% |

| SMILES | inhibition at 110 µM [1] | inhibition at 110 µM [2] | inhibition at 110 µM [3] | inhibition at 110 µM [4] |
| --- | --- | --- | --- | --- |
| CSCC[C@H](N)C(=O)O [L-Methionine] | 0% | 0% | – | – |
| N[C@@H](Cc1ccccc1)C(=O)O [L-Phenylalanine] | 23% | 21% | – | – |
| O=C(O)[C@@H]1CCCN1 [L-Proline] | 0% | 0% | – | – |
| N[C@@H](CO)C(=O)O [L-Serine] | 0% | 0% | – | – |
| N[C@@H](Cc1c[nH]c2ccccc12)C(=O)O [L-Tryptophan] | – | – | 26% | 3% |
| N[C@@H](Cc1ccc(O)cc1)C(=O)O [L-Tyrosine] | – | – | 34% | 8% |
| CC(C)[C@H](N)C(=O)O [L-Valine] | 0% | 12% | – | – |
| CC12CC3OC4O[C@H](CO)[C@@H](O)[C@H](O)[C@H]4OC34CC1C4(COC(=O)c1ccccc1)C(=O)O2 (stereo partly drawn) [Lactiflorin] | 0% | 11% | – | – |
| Nc1ccn([C@@H]2CS[C@H](CO)O2)c(=O)n1 [Lamivudine] | 23% | 5% | – | – |
| CC(=O)O[C@H]1C[C@H](O[C@H]2[C@@H](O)C[C@H](O[C@H]3[C@@H](O)C[C@H](O[C@H]4CC[C@@]5(C)[C@H](CC[C@@H]6[C@@H]5C[C@@H](O)[C@]5(C)[C@@H](C7=CC(=O)OC7)CC[C@]65O)C4)O[C@@H]3C)O[C@@H]2C)O[C@H](C)[C@H]1O[C@@H]1O[C@H](CO)[C@@H](O)[C@H](O)[C@H]1O [Lanatoside C] | 0% | 2% | – | – |
| CC[C@@H](C(=O)[C@@H](C)[C@@H](O)[C@H](C)CCc1ccc(C)c(O)c1C(=O)O)[C@H]1O[C@](CC)([C@H]2CC[C@](O)(CC)[C@H](C)O2)C[C@@H]1C [Lasalocid] | 23% | 21% | – | – |
| COC(=O)N[C@H](C(=O)N1CC2(CC2)C[C@H]1c1nc(-c2ccc3c(c2)C(F)(F)c2cc(-c4ccc5[nH]c([C@@H]6[C@H]7CC[C@H](C7)N6C(=O)[C@@H](NC(=O)OC)C(C)C)nc5c4)ccc2-3)c[nH]1)C(C)C [Ledipasvir] | 25% | 1% | – | – |
| COc1cc(C(=O)OCCCCNC(=N)N)cc(OC)c1O [Leonurine] | 0% | 0% | – | – |
| Cc1c(C)[n+](Cc2ccccc2)cn1Cc1ccccc1 [Lepidiline A] | 5% | 14% | – | – |
| CCc1nn(CCO)c(CC)c1Oc1cc(C#N)cc(C#N)c1 [Lersivirine] | 18% | 8% | – | – |
| COc1cccc(N2CCN(C3=Nc4c(F)cccc4[C@H](CC(=O)O)N3c3cc(C(F)(F)F)ccc3OC)CC2)c1 [Letermovir] | 24% | 0% | – | – |
| N#Cc1ccc(C(c2ccc(C#N)cc2)n2cncn2)cc1 [Letrozole] | 0% | 0% | – | – |
| C[C@H]1COc2c(N3CCN(C)CC3)c(F)cc3c(=O)c(C(=O)O)cn1c23 [Levofloxacin] | 9% | 10% | – | – |
| COc1c(/C=C/C(=O)c2ccc(O)c(CC=C(C)C)c2)ccc(O)c1O [Licochal cone D] | 15% | 0% | – | – |
| C=C(C)[C@H](C)c1cc(/C=C/C(=O)c2ccc(O)cc2)c(OC)cc1O [Licochal cone E] | 5% | 0% | – | – |

| SMILES | inhibition at 110 µM [1] | inhibition at 110 µM [2] | inhibition at 110 µM [3] | inhibition at 110 µM [4] |
| --- | --- | --- | --- | --- |
| Cc1nc(C)c(C)nc1C [Ligustrazine] | 0% | 2% | – | – |
| C=CC(C)(O)CCC=C(C)C (stereo not drawn) [Linalool] | – | – | 14% | 20% |
| C/C1=C\CCC2=C[C@@H](OC2=O)c2c(C)coc2C1 [Linderalactone] | 0% | 45% | – | – |
| C/C1=C\CC[C@]23O[C@H]2[C@@H](OC3=O)c2c(C)coc2C1 [Linderane] | 5% | 16% | – | – |
| O=C1C[C@@H](c2ccc(O[C@@H]3O[C@H](CO)[C@@H](O)[C@H](O)[C@H]3O)cc2)Oc2cc(O)ccc21 [Liquiriti n] | 45% | 14% | – | – |
| C[C@@H]1[C@H]2[C@H](O[C@@H]3O[C@H](CO)[C@@H](O)[C@H](O)[C@H]3O)OC=C(C(=O)O)[C@H]2C[C@@H]1O [Loganic acid] | 28% | 29% | – | – |
| COC(=O)C1=CO[C@@H](O[C@@H]2O[C@H](CO)[C@@H](O)[C@H](O)[C@H]2O)[C@@H]2[C@@H](C)[C@@H](O)C[C@H]12 [Loganin] | 11% | 15% | – | – |
| C[C@@H]1O[C@@H](O[C@H]2[C@H](Oc3cc(O)c4c(=O)cc(-c5ccc(O)c(O)c5)oc4c3)O[C@H](CO)[C@@H](O)[C@@H]2O)[C@H](O)[C@H](O)[C@H]1O [Lonicerin] | 2% | 2% | – | – |
| Cc1cccc(C)c1OCC(=O)N[C@@H](Cc1ccccc1)[C@@H](O)C[C@H](Cc1ccccc1)NC(=O)[C@H](C(C)C)N1CCCNC1=O [Lopinavir] | 17% | 14% | – | – |
| N#C/C(=C1/SC[C@@H](c2ccc(Cl)cc2Cl)S1)n1ccnc1 [Luliconazole] | 3% | 7% | – | – |
| CCCCN(CCCC)CC(O)c1cc(Cl)cc2c1-c1ccc(Cl)cc1/C2=C/c1ccc(Cl)cc1 (stereo not drawn) [Lumefantrine] | 0% | 0% | – | – |
| C=C(C)[C@@H]1CC[C@]2(C)CC[C@]3(C)[C@H](CC[C@@H]4[C@@]5(C)CCC(=O)C(C)(C)[C@@H]5CC[C@]43C)[C@@H]12 [Lupenone] | 25% | 17% | – | – |
| C=C(C)[C@@H]1CC[C@]2(C)CC[C@]3(C)[C@H](CC[C@@H]4[C@@]5(C)CC[C@H](O)C(C)(C)[C@@H]5CC[C@]43C)[C@@H]12 [Lupeol] | 0% | 0% | – | – |
| CC1=C[C@H](O)CC(C)(C)[C@H]1/C=C/C(C)=C/C=C/C(C)=C/C=C/C=C(C)/C=C/C=C(C)/C=C/C1=C(C)C[C@@H](O)CC1(C)C [Lutein] | – | – | 13% | 0% |
| O=c1cc(-c2ccc(O)c(O)c2)oc2cc(O)cc(O)c12 [Luteolin] | 4% | 0% | – | – |
| COc1ccc2c3c1O[C@H]1C[C@@H](O)CC[C@]31CCN(C)C2 [Lycoramine] | 0% | 0% | – | – |
| O[C@H]1[C@H]2c3cc4c(cc3CN3CCC(=C[C@@H]1O)[C@H]23)OCO4 [Lycorine] | 34% | 0% | – | – |
| CN1[C@@H]2CC[C@H]1C[C@@H](OC(=O)[C@H](CO)c1ccccc1)C2 [L‐Hyoscyamine] | – | – | 16% | 12% |
| C[C@H]1[C@H](C)CC[C@]2(C(=O)O)CC[C@]3(C)C(=CC[C@@H]4[C@@]5(C)C[C@@H](O)[C@H](O)[C@@](C)(CO)[C@@H]5[C@H](O)C[C@]43C)[C@H]12 [Madecassic acid] | 1% | 31% | – | – |
| C=CCc1ccc(O)c(-c2cc(CC=C)ccc2O)c1 [Magnolol] | 0% | 14% | – | – |

Source: publication PMC11855827, “High-Throughput Screening of Five Compound Libraries for Anthelmintic Activity and Toxicity Leads to the Discovery of Two Flavonoid Compounds” (International Journal of Molecular Sciences, 2025)
